# “And” between values parts separate entries of the source, which are not always exact repeats. Identical values can stand only once.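 Test compounds were applied to cells in 96-well plates for 48 hours at 5 doses. GI50: concentration for 50% inhibition of growth. TGI: concentration producing complete growth inhibition.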
# How the values were obtained:
# Assay in all cases: DTP human tumour cell line panel, 48 h
# NCI-H23 lung = tested on: NCI-H23 lung
# EKVX NSCLC = tested on: EKVX NSCLC
# NCI-H522 lung = tested on: NCI-H522 lung
# SF-539 CNS = tested on: SF-539 CNS
# 786-0 renal = tested on: 786-0 renal
# DLD-1 colon = tested on: DLD-1 colon
# DMS 114 small cell lung = tested on: DMS 114 small cell lung
# UO-31 renal = tested on: UO-31 renal
# TK-10 renal = tested on: TK-10 renal
# LOX IMVI melanoma = tested on: LOX IMVI melanoma
# M14 melanoma = tested on: M14 melanoma
# HCT-116 colon = tested on: HCT-116 colon
# MOLT-4 leukemia = tested on: MOLT-4 leukemia
# HOP-62 NSCLC = tested on: HOP-62 NSCLC
# CCRF-CEM leukemia = tested on: CCRF-CEM leukemia
# U251 CNS = tested on: U251 CNS
# OVCAR-3 ovarian = tested on: OVCAR-3 ovarian
# COLO 205 colon = tested on: COLO 205 colon
# HOP-92 NSCLC = tested on: HOP-92 NSCLC
# SNB-19 CNS = tested on: SNB-19 CNS
# HCC-2998 colon = tested on: HCC-2998 colon
# SF-268 CNS = tested on: SF-268 CNS
# HCT-15 colon = tested on: HCT-15 colon
# KM20L2 colon = tested on: KM20L2 colon
# OVCAR-4 ovarian = tested on: OVCAR-4 ovarian
# SNB-78 CNS = tested on: SNB-78 CNS
# RPMI-8226 leukemia = tested on: RPMI-8226 leukemia
# SNB-75 CNS = tested on: SNB-75 CNS
# SN12C renal = tested on: SN12C renal
# SK-OV-3 ovarian = tested on: SK-OV-3 ovarian
# LXFL 529 NSCLC = tested on: LXFL 529 NSCLC
# MALME-3M melanoma = tested on: MALME-3M melanoma
# NCI-H226 lung = tested on: NCI-H226 lung
# A549 NSCLC = tested on: A549 NSCLC
# CAKI-1 renal = tested on: CAKI-1 renal
# M19-MEL melanoma = tested on: M19-MEL melanoma
# OVCAR-5 ovarian = tested on: OVCAR-5 ovarian
# IGROV1 ovarian = tested on: IGROV1 ovarian
# SK-MEL-5 melanoma = tested on: SK-MEL-5 melanoma
# SK-MEL-28 melanoma = tested on: SK-MEL-28 melanoma
# OVCAR-8 ovarian = tested on: OVCAR-8 ovarian
# DMS 273 small cell lung = tested on: DMS 273 small cell lung
# HL-60(TB) leukemia = tested on: HL-60(TB) leukemia
# UACC-257 melanoma = tested on: UACC-257 melanoma
# NCI-H460 lung = tested on: NCI-H460 lung
# SW-620 colon = tested on: SW-620 colon
# K-562 leukemia = tested on: K-562 leukemia
# UACC-62 melanoma = tested on: UACC-62 melanoma
# RXF-631 renal = tested on: RXF-631 renal
# SK-MEL-2 melanoma = tested on: SK-MEL-2 melanoma
# A498 renal = tested on: A498 renal
# HT29 colon = tested on: HT29 colon
# ACHN renal = tested on: ACHN renal
# RXF 393 renal = tested on: RXF 393 renal
# SR leukemia = tested on: SR leukemia
# SF-295 CNS = tested on: SF-295 CNS
# KM12 colon = tested on: KM12 colon
# HOP-18 NSCLC = tested on: HOP-18 NSCLC
# T-47D breast = tested on: T-47D breast
# BT-549 breast = tested on: BT-549 breast
smiles,measurement,setting,value
CCCCCCCCCC[C@@H](O)[C@@H]1CC[C@H]([C@H]2CC[C@@H]([C@@H](O)CCCCCCCCCC[C@H]3CC(CC(C)=O)C(=O)O3)O2)O1 (stereo partly drawn),TGI,NCI-H23 lung,16.4 µM
same,TGI,EKVX NSCLC,78 µM
same,TGI,NCI-H522 lung,13.2 µM
same,TGI,SF-539 CNS,22.7 µM
same,TGI,786-0 renal,28.5 µM
same,TGI,DLD-1 colon,83 µM
same,TGI,DMS 114 small cell lung,19 µM
same,TGI,UO-31 renal,16.5 µM
same,TGI,TK-10 renal,32.8 µM
same,TGI,LOX IMVI melanoma,36 µM
same,TGI,M14 melanoma,35.3 µM
same,TGI,HCT-116 colon,17.8 µM
same,TGI,MOLT-4 leukemia,18.8 µM
same,TGI,HOP-62 NSCLC,31 µM
same,TGI,CCRF-CEM leukemia,33.4 µM
same,TGI,U251 CNS,43.8 µM
same,TGI,OVCAR-3 ovarian,17.8 µM
same,TGI,COLO 205 colon,28.8 µM
same,TGI,HOP-92 NSCLC,33.4 µM
same,TGI,SNB-19 CNS,31.3 µM
same,TGI,HCC-2998 colon,47 µM
same,TGI,SF-268 CNS,31.4 µM
same,TGI,HCT-15 colon,34 µM
same,TGI,KM20L2 colon,52.7 µM
same,TGI,OVCAR-4 ovarian,21.7 µM
same,TGI,SNB-78 CNS,37.2 µM
same,TGI,RPMI-8226 leukemia,15.4 µM
same,TGI,SNB-75 CNS,26.9 µM
same,TGI,SN12C renal,49.1 µM
same,TGI,SK-OV-3 ovarian,34.1 µM
same,TGI,LXFL 529 NSCLC,19.5 µM
same,TGI,MALME-3M melanoma,19.1 µM
same,TGI,NCI-H226 lung,20.2 µM
same,TGI,A549 NSCLC,30.6 µM
same,TGI,CAKI-1 renal,75.8 µM
same,TGI,M19-MEL melanoma,46.5 µM
same,TGI,OVCAR-5 ovarian,74.3 µM
same,TGI,IGROV1 ovarian,39.2 µM
same,TGI,SK-MEL-5 melanoma,10.7 µM
same,TGI,SK-MEL-28 melanoma,24.4 µM
same,TGI,OVCAR-8 ovarian,37.8 µM
same,TGI,DMS 273 small cell lung,32.8 µM
same,TGI,HL-60(TB) leukemia,2.29 µM
same,TGI,UACC-257 melanoma,26.7 µM
same,TGI,NCI-H460 lung,> 100 µM
same,TGI,SW-620 colon,38 µM
same,TGI,K-562 leukemia,33.4 µM
same,TGI,UACC-62 melanoma,32.2 µM
same,TGI,RXF-631 renal,38.3 µM
same,TGI,SK-MEL-2 melanoma,30.7 µM
same,TGI,A498 renal,71.9 µM
same,TGI,HT29 colon,34.6 µM
Cc1ccc(C)c(NC(=O)CC/C(=N\NC(=O)C(=O)NN)C(C)C(=O)c2ccc(O)cc2)c1 (stereo not drawn),TGI,NCI-H23 lung,> 100 µM
same,TGI,EKVX NSCLC,> 100 µM
same,TGI,NCI-H522 lung,> 100 µM
same,TGI,SF-539 CNS,> 100 µM
same,TGI,786-0 renal,> 100 µM
same,TGI,DLD-1 colon,> 100 µM
same,TGI,UO-31 renal,> 100 µM
same,TGI,TK-10 renal,> 100 µM
same,TGI,LOX IMVI melanoma,> 100 µM
same,TGI,M14 melanoma,> 100 µM
same,TGI,ACHN renal,> 100 µM
same,TGI,HCT-116 colon,> 100 µM
same,TGI,MOLT-4 leukemia,> 100 µM
same,TGI,HOP-62 NSCLC,> 100 µM
same,TGI,CCRF-CEM leukemia,> 100 µM
same,TGI,U251 CNS,> 100 µM
same,TGI,OVCAR-3 ovarian,> 100 µM
same,TGI,RXF 393 renal,> 100 µM
same,TGI,COLO 205 colon,> 100 µM
same,TGI,HOP-92 NSCLC,> 100 µM
same,TGI,SR leukemia,> 100 µM
same,TGI,SNB-19 CNS,> 100 µM
same,TGI,HCC-2998 colon,> 100 µM
same,TGI,SF-268 CNS,> 100 µM
same,TGI,HCT-15 colon,> 100 µM
same,TGI,KM20L2 colon,> 100 µM
same,TGI,OVCAR-4 ovarian,> 100 µM
same,TGI,SNB-78 CNS,> 100 µM
same,TGI,RPMI-8226 leukemia,> 100 µM
same,TGI,SNB-75 CNS,> 100 µM
same,TGI,SN12C renal,> 100 µM
same,TGI,SK-OV-3 ovarian,> 100 µM
same,TGI,LXFL 529 NSCLC,> 100 µM
same,TGI,MALME-3M melanoma,> 100 µM
same,TGI,NCI-H226 lung,> 100 µM
same,TGI,A549 NSCLC,> 100 µM
same,TGI,SF-295 CNS,> 100 µM
same,TGI,CAKI-1 renal,> 100 µM
same,TGI,M19-MEL melanoma,> 100 µM
same,TGI,OVCAR-5 ovarian,> 100 µM
same,TGI,IGROV1 ovarian,> 100 µM
same,TGI,SK-MEL-5 melanoma,> 100 µM
same,TGI,SK-MEL-28 melanoma,> 100 µM
same,TGI,DMS 273 small cell lung,> 100 µM
same,TGI,KM12 colon,> 100 µM
same,TGI,UACC-257 melanoma,> 100 µM
same,TGI,NCI-H460 lung,> 100 µM
same,TGI,SW-620 colon,> 100 µM
same,TGI,K-562 leukemia,> 100 µM
same,TGI,UACC-62 melanoma,> 100 µM
same,TGI,HOP-18 NSCLC,> 100 µM
same,TGI,SK-MEL-2 melanoma,> 100 µM
same,TGI,A498 renal,> 100 µM
same,TGI,HT29 colon,> 100 µM
Nc1nc(=S)c2ncn(C3CC(O)C(CO)O3)c2[nH]1 (stereo not drawn),TGI,786-0 renal,> 2350 µM
same,TGI,DLD-1 colon,340 µM and 1740 µM
same,TGI,U251 CNS,901 µM and > 4730 µM
same,GI50,SNB-19 CNS,77.3 µM and 753 µM
same,TGI,SNB-19 CNS,> 5000 µM
same,TGI,T-47D breast,438 µM and > 3110 µM
same,TGI,SF-268 CNS,555 µM and > 5000 µM
same,TGI,KM20L2 colon,421 µM and 2940 µM
same,TGI,SNB-78 CNS,> 5000 µM
same,TGI,SNB-75 CNS,377 µM and 3000 µM
same,TGI,SN12C renal,353 µM and 3130 µM
same,TGI,NCI-H226 lung,639 µM and > 5000 µM
same,TGI,SF-295 CNS,382 µM and 3310 µM
same,TGI,M19-MEL melanoma,> 4680 µM
same,TGI,IGROV1 ovarian,521 µM and 2870 µM
same,TGI,SK-MEL-28 melanoma,594 µM and > 5000 µM
same,TGI,KM12 colon,75 µM and 700 µM
same,TGI,SW-620 colon,385 µM and 3540 µM
same,TGI,K-562 leukemia,333 µM and 2590 µM
same,TGI,BT-549 breast,883 µM and 4760 µM
same,TGI,HOP-18 NSCLC,> 983 µM and 4020 µM
same,TGI,HT29 colon,> 466 µM and 2190 µM

# Source: PubChem BioAssay (NCI)
